Source: patent US11040056B2, “Benzimidazoles that enhance the activity of oligonucleotides” (The University of North Carolina at Chapel Hill, priority 2018, dated 2021)

Key:
[1] = test system: NIH-3T3-MDR cells; assay: Alamar Blue cytotoxicity assay; format: cell-based; conditions: 2 h exposure, then 24 h, FIG. 1E
Description: FIG. 1B-1E. Effects with SSOs. FIG. 1B Structure of UNC2383. FIG. 1C Compound 2383 enhances SSO effects. Cells were incubated in 24-well plates with 100 nM SSO623 or its mismatched control (MM) for 16 h in DMEM+10% FBS, rinsed and then treated with various concentrations of 2383 for 2 h. The cells were then rinsed and incubation continued for an additional 4 h in DMEM+10% FBS. Cells were rinsed twice in PBS and luciferase activity (RLU) and cell protein determined. The larger round symbol indicates the MM oligonucleotide. Means+/−SE. N=3. FIG. 1D Kinetics of 2383 action. Cells were preloaded with 100 nM SSO623 and then exposed to 2383 for various periods after which the compound was removed. The cells were further incubated and then luciferase and protein determined. The total time of incubation in each case was 6 h. FIG. 1E Cytotoxicity of 2383. HeLa Luc705 or NIH-3T3-MDR cells were exposed to 2383 as in (FIG. 1C) then incubated for 24 h in DMEM plus 10% FBS and tested using the Alamar Blue cytotoxicity assay. Means+/−SE. N=3.
SSO-mediated luciferase induction assays were conducted as previously described. (18) In short, HeLaLuc705 cells in 24 well culture plates were preincubated with SSO623 followed by brief treatment with the small molecule; at intervals thereafter, luciferase activity and protein content were determined. […] Cytotoxicity of 2383 was monitored using the Alamar Blue assay. […]

[2] = test system: EGFP654 mouse tracheal epithelial cells (MTEC); assay: Splicing correction (EGFP expression) in EGFP654 mouse tracheal epithelial cells; format: cell-based; conditions: 1 uM SSO PS623 basolateral overnight, 3 uM OEC apical 2 hr
Description: FIG. 13. EGFP654 Mouse tracheal cells. Well-differentiated tracheal epithelial cells derived from the EGFP654 mouse were treated basolaterally with 1 uM SSO PS623 (overnight) and apically with 3 uM OEC2383 (2 hr) or vehicle. Confocal microscopy images (xy, xz planes), bar=20 um.
FIG. 15B: P-PMO+OEC mediated splicing correction in EGFP654 MTEC. Well-differentiated cultures of primary tracheal cells (MTEC) derived from the EGFP654 mouse were treated with only one dose of P-PMO“654” (0.5 uM, overnight) followed by vehicle (−) or OEC2383 or OEC7938 (+), (10 uM, 2 hs). Both the SSO and OEC were added in cell medium either into the basolateral (BL, 400 ul) or the apical (AP, 30 ul) sides. MTEC were imaged in face at low mag. with a 10× lens in a fluorescence microscope, after 48 hs and 65 days post-treatment. All wells had the same total cell numbers. Vehicle controls<10 cells/well; n=3, bar=70 um. 1) Basolateral delivery of one treatment of P-PMO and OEC corrected>70% MTEC/well at 48 hs post-treatment. EGFP expression was still evident in large groups of cells after 65 days.
Methods: SSO623 (1 uM) was incubated basolaterally overnight in well-differentiated primary tracheal epithelial cells (MTEC) derived from the EGFP654 mouse (Wang et al, 2017); OEC2383 was administered apically or basolaterally (1-4 uM for 2-3 hs). […]

O=C(Nc1nc2ccccc2n1CCN1CCCC1)c1cc2cc(Cl)ccc2o1 [UNC2383]
concentrations showing little toxicity [1]: ≤ 10 µM
EGFP expression / enhancing activity in MTEC [2]: notably expressed
